Format in all cases: cell-based
Assay [1] has as its system E. coli K12 overexpressing activating enzyme. The experiment in a line: MIC, standard broth microdilution assay, overexpression strains. The procedure: (§1) The ASKA strains of interest are validated for functional expression of the enzyme. If the protein is not expressed from a given expression vector the ORF is recloned. A strain overexpressing the activating enzyme from the ASKA library is then tested with the hit compound. If the hit has greater activity against this overexpressing strain as compared to the wild type, this indicates a prodrug. The test is performed in a standard broth microdilution assay for MIC determination. Hits with the lowest wild type MIC are then examined.
(§2) Cells were tested in a standard broth microdilution assay, inoculating 10^5 cells per well of a microtiter plate in LB broth. Overexpression and deletion strains were compared to the appropriate isogenic wild type. IPTG was added at 1 mM to growth medium. Experiments involving nfnB and nfsA strains were performed under anaerobic conditions.

In another assay the test system is E. coli K12 wt. The experiment in a line: MIC, standard broth microdilution assay. Conditions: LB broth, 10^5 cells per well, 1 mM IPTG. The protocol:
as §1, §2

Assay [2] relates to E. coli K12 ΔtolC overexpressing activating enzyme. The assay is described as follows: MIC, standard broth microdilution assay, tolC deletion (MDR efflux).
From the text: Prodrugs are activated by activating enzymes into reactive molecules that bind to their targets, creating an irreversible sink. This may lead to insensitivity of the overall process to MDR efflux. In order to test this possibility, an E. coli K12 with a deletion in tolC coding for the outer membrane porin that is a component of the transenvelope MDRs was utilized (Li (2004) Drugs 64:159-204). This strain is highly sensitive to antibiotics (Tegos et al. (2002) Antimicrob. Agents Chemother. 46:3133-3141). […] The substrate specificity of AcrAB is remarkably broad, and includes essentially all small molecular weight amphipathic compounds. The AcrAB substrates include anions (SDS, fatty acids, bile acids), neutral compounds (macrolides, chloramphenicol, tetracyclines) and cations or compounds that can form cations (acridine, quaternary compound antiseptics, fluoroquinolones). AcrAB can extrude a natural broad spectrum antibiotics that evolved for good penetration, chloramphenicol and tetracycline; and also extrude synthetic broad-spectrums, the fluoroquinolones.
as §2

Assay [3] deals with E. coli K12 knockout pool (BacPool) and wild type. The assay is described as follows: Prodrug screen, growth/no growth of BacPool knockout mix versus wild type. Conditions: compounds at about 46-50 μg/ml, OD600 after overnight incubation. From the text: A complete, ordered E. coli K12 knockout library of 4320 genes and predicted ORFs (the Keio library) was used (Baba et al. (2006). Mol. Systems Biol. 2:2006.0008). The knockouts were constructed using the Wanner method with a kanamycin cassette replacing the ORFs (Datsenko et al. (2000) Proc. Natl. Acad. Sci. USA 97:6640-6645). All strains of this library were combined in a mix BacPool1) for screening. This permitted screening of the library against all strains simultaneously, instead of screening a full industry-size library against each of the individual E. coli 4×10^3 knockout strains.
The library mix was prepared by first culturing all strains overnight in LB medium, and then adding equal aliquots into a tube. This material was then mixed, dispensed in vials and stored at −80° C. For the screen, one vial was thawed, diluted to 10^5 cells/ml in LB, and dispensed into 384 well microtiter plates. The compounds were added from DMSO stocks at a final concentration of 46 μg/ml. The same compounds were added to plates containing the wild type isogenic control. Screening was performed at the Harvard NSRB/NERCE screening facility that host a collection of 150,000 compounds (see Tables 1A and 1B). All screens at NSRB/NERCE were performed in duplicate, which strongly decreases the rate of false positives and negatives. For each tested molecule there are three possible scenarios when scoring for growth/no growth:
Growth in both the BacPool and K12 wells: indicates lack of antimicrobial activity;
Growth inhibition in both the BacPool and K12 wells: a possible antibiotic (direct activity) or generally toxic compound is present, but is not a prodrug; or
Growth of a BacPool well and no growth of the K12 well: a prodrug hit.
After an overnight incubation of plates at 37° C., the plates were read at OD600. Compounds that had no effect on the growth of the mix and inhibited the growth of the wild type were recorded as hits. The wells with growth indicated a prodrug hit that is not converted into a drug by a particular deletion mutant in the mix. The mutant strain is then identified in a secondary screen (see Example 2).
Yet another screen was performed on 147,500 compounds, using the protocol described below. […]
An E. coli KanR culture was grown in LB broth containing 50 μg/ml Kanamycin for 20 hrs at 37° C. in a shaking incubator. […] The plates were then incubated for 20 hrs at 37° C., and then the plates were read for Optical Density at 600 nm and were scored for growth/no growth. […]
Hits were identified by calculating the % of inhibition of growth of E. coli measured by OD600. The data were analyzed as follows: negative controls (N), positive controls (P), and compounds (X) ODs were separately averaged and the resulting means were used to calculate % of inhibition of E. coli growth: […]

The next assay has as its system wild type (WT) E. coli. The experiment in a line: MIC, validation of screen hits. Particulars: Escherichia coli, read-out: MIC. The protocol:
To validate the screening, the activity of nitazole against strains with nitrate reductases deleted and in strains overexpressing nitrate reductases were tested. A prodrug activated by a nitrate reductase has lower activity against a strain lacking the enzyme, and a higher activity in an overexpression strain, as compared to a wild type. E. coli has two known […], NfnB and NfsA. Strains tested were wild type (WT) E. coli, two knockout strains lacking the 2 nitroreductases (NfnB−; NfsA−), and against two strains overexpressing the same enzymes (NfnB+ and NfsA+). MIC values for nitazole are shown below.

Assay [4] has as its system E. coli K12 Δactivating enzyme. The assay is described as follows: MIC, standard broth microdilution assay, deletion strains. The procedure: as §1, §2
For the next assay, the system named is P. aeruginosa. The experiment in a line: Killing of logarithmic, stationary and biofilm cultures, colony count. The protocol:
Persister cells in planktonic and biofilm populations are characterized for their antibiotic sensitivity in this example. Several bactericidal antimicrobials were chosen to test the resistance of P. aeruginosa to killing—ofloxacin, a fluoroquinolone; tobramycin, an aminoglycoside; carbenicillin, a β-lactam; and peracetic acid, a disinfectant oxidant (Spoering et al. (2001) J. Bacteriol. 183:6746-6751). Biofilms were grown essentially by the method of Ceri (Ceri et al. (1999) J. Clin. Microbiol. 37:1771-1776) and as described in Brooun et al. (2000) Antimicrob. Agents Chemother. 44:640-646. The device used for biofilm formation is a platform carrying 96 polystyrene pegs that fit in a microtiter plate. Preformed biofilms were incubated in the presence of an antimicrobial agent, and survival was measured after disrupting the biofilms by colony count.
Logarithmic state, stationary and biofilm cultures were challenged with carbenicillin. Carbenicillin is a bactericidal antibiotic that, similarly to most β-lactams, only kills rapidly growing cells (Tuomanen et al. (1986) Scand. J. Gastroenterol. Suppl:10-14). […] The amount of killing of logarithmic cells approached a plateau at concentrations above 1.67×MIC, indicating the presence of a persister subpopulation. These 0.1% cells in the rapidly growing logarithmic culture were invulnerable to killing by carbenicillin at 600 μg/ml.
Unlike carbenicillin, ofloxacin can kill non-growing cells (Brooun et al. (2000) Antimicrob. Agents Chemother. 44:640-646). Logarithmic, stationary and biofilm cultures were challenged with ofloxacin over a wide range of concentrations, from 1×MIC (0.5 μg/ml) to 30×MIC (15 μg/ml). After a 6 hrs incubation time with the antibiotic, viability was determined by colony count. The majority of cells in the three populations examined were killed at low concentrations of ofloxacin (FIG. 3B). The killing in all three cultures was distinctly biphasic, indicating the presence of persister cells. The levels of persisters were dramatically higher in the dense stationary planktonic and biofilm cultures as compared to logarithmic cells. […] At 5 μg/ml ofloxacin, which is the clinically achievable concentration (Schulz et al. (1997) Pharmazie 52:895-911), the percentage of live cells was 0.001% in the logarithmic population, 0.1% in the biofilm and 2.5% in the stationary culture (FIG. 3B).
Tobramycin at 50 μg/ml (the maximal clinically achievable concentration is 10 μg/ml), (Schulz et al. (1997) Pharmazie 52:895-911) eliminated 90% of the biofilm cells, and the remaining population declined gradually with increasing amounts of the antibiotic. At high concentrations surviving persisters became apparent. Tobramycin was ineffective against stationary planktonic cells, apparently due to the dependence of killing of growth.
Peracetic acid, an oxidizing disinfectant, was used in order to test the ability of a sterilizing agent to act against persisters. […] Similar results showing biphasic killing, and high level of persisters in stationary and biofilm populations, also were obtained with S. aureus and E. coli (Keren et al. (2004) FEMS Microbiol. Lett. 230:13-18).

Setting [5] is: nfsA^+ overexpressing strain, 1 mM IPTG, anaerobic conditions.
The mark [6] stands for this setting: Escherichia coli, K12WT, read-out: MIC.
Where [7] appears, read: ΔtolC, nfnB^+ overexpressing strain.
Setting [8] is: ΔtolC, nfsA^+ overexpressing strain.
[9] abbreviates: nfnB^+ overexpressing strain, 1 mM IPTG, anaerobic conditions.
Setting [10] is: nfnB^− deletion strain, anaerobic conditions.
[11] abbreviates: nfsA^− deletion strain, anaerobic conditions.

In brackets after ≈: the same amount, converted by molar mass. Read-outs that look alike come from different tables or passages of the source. Some results are limits rather than exact numbers.

For `CC[C@H]1OC(=O)[C@H](C)[C@@H](O[C@H]2C[C@@](C)(OC)[C@@H](O)[C@H](C)O2)[C@H](C)[C@@H](O[C@@H]2O[C@H](C)C[C@H](N(C)C)[C@H]2O)[C@](C)(O)C[C@@H](C)C(=O)[C@H](C)[C@@H](O)[C@]1(C)O` [Erythromycin], the MIC in assay [1] (Escherichia coli) is 200 µg/mL (≈ 273 µM); in assay [1] (codA^+ overexpressing strain, 1 mM IPTG), “codA^+ 200 μg/ml”; in assay [1] (deoD^+ overexpressing strain, 1 mM IPTG), “deoD^+ 200 μg/ml”; in assay [1] (setting [5]), “nfsA^+ 200 μg/ml”; in the assay on E. coli K12 wt (setting [6]), 200 µg/mL (≈ 273 µM); in assay [2] (Escherichia coli) it was 1.56 µg/mL (≈ 2.13 µM). Moreover, the minimal inhibitory concentration (MIC) entry in assay [2] (ΔtolC, codA^+ overexpressing strain) is reported as “codA^+ 1.56 μg/ml”; in assay [2] (ΔtolC, deoD^+ overexpressing strain) it was “deoD^+ 1.56 μg/ml”; in assay [2] (setting [7]), “nfnB^+ 1.56 μg/ml”; in assay [2] (setting [8]), “nfsA^+ 1.56 μg/ml”.
In the case of `S=C(Nc1cccc(Cl)c1)Nc1cccc(Cl)c1` [PD18, thiourea, N,N′-bis(3-chlorophenyl)-(9CI)], the “screen outcome (prodrug hit / direct activity)” value in assay [3] is on record as “prodrug hits”. In addition, the minimum inhibitory concentration (MIC) in the assay on wild type (WT) E. coli came to 25 µg/mL (≈ 84.1 µM).
Turning to `Nc1nc(F)nc2c1ncn2[C@@H]1O[C@H](CO)[C@@H](O)[C@@H]1O` [Fludarabine], the minimum inhibitory concentration (MIC) was 125 µg/mL (≈ 438 µM) in assay [1] (Escherichia coli); > 500 µg/mL with E. coli K12 wt (setting [6]); > 500 µg/mL in assay [4] (Escherichia coli, deoD^− deletion strain); 125 µg/mL (≈ 438 µM) in assay [2] (Escherichia coli).
For `CC1(C)S[C@@H]2[C@H](NC(=O)C(C(=O)O)c3ccccc3)C(=O)N2[C@H]1C(=O)O` (stereo partly drawn) [carbenicillin], the “killing of biofilm cells” value with P. aeruginosa (biofilm) is on record as “resistant to killing”. Besides, the “concentration at which the majority of logarithmic cells were killed” value in the assay with P. aeruginosa (logarithmic cells) was 1.67 ×MIC. Besides, the “cells invulnerable to killing (persister subpopulation)” value in the assay with P. aeruginosa (rapidly growing logarithmic culture, 600 μg/ml) is 0.1%. Further, in the assay on P. aeruginosa (stationary planktonic cells), the “killing of stationary cells” value is listed as “little killing”.
With `Nc1nc(O)ncc1F` [5-fluorocytosine, 5-Fluorocytosine], the minimum inhibitory concentration (MIC) in assay [1] (Escherichia coli) was 625 µg/mL (≈ 4840 µM); in the assay on E. coli K12 wt (setting [6]), > 2500 µg/mL; in assay [4] (Escherichia coli, codA^− deletion strain), > 2500 µg/mL; in assay [2] (Escherichia coli), 625 µg/mL (≈ 4840 µM).
`NC(=O)c1cc(N2CC2)c([N+](=O)[O-])cc1[N+](=O)[O-]` [Dinitroaziridinylbenzamide (CB1954), Dinitroaziridinylbenzamide]: the minimum inhibitory concentration (MIC) result in assay [1] (setting [9]) is “nfnB^+ 3.3 μg/ml”; in assay [1] (setting [5]), “nfsA^+ 6.3 μg/ml”; in the assay on E. coli K12 wt, >200 µg/mL; in assay [4] (setting [10]) it was “nfnB^− > 200 μg/ml”; in assay [4] (setting [11]), “nfsA^− > 200 μg/ml”; in assay [2] (setting [7]), “nfnB^+ 3.3 μg/ml”. Moreover, the minimum inhibitory concentration (MIC) entry in assay [2] (setting [8]) is given as “nfsA^+ 6.3 μg/ml”.
In the case of `NC(=O)c1cc([N+](=O)[O-])cc([N+](=O)[O-])c1` [3,5-Dinitrobenzamide], the MIC result is “nfnB^+ 15.6 μg/ml” in assay [1] (setting [9]); “nfsA^+ 7.8 μg/ml” in assay [1] (setting [5]); 250 µg/mL (≈ 1180 µM) with E. coli K12 wt; “nfnB^− > 500 μg/ml” in assay [4] (setting [10]); “nfsA^− > 500 μg/ml” in assay [4] (setting [11]); “nfnB^+ 15.6 μg/ml” in assay [2] (setting [7]). Further, the MIC entry in assay [2] (setting [8]) is on record as “nfsA^+ 7.8 μg/ml”.
For the molecule `CC(=O)OO` [Peracetic acid], the sterilization of cultures result in the assay with P. aeruginosa (logarithmic, stationary and biofilm cultures) was “all cultures were sterilized”.

The values above are taken from patent US20110046142A1, “ANTIBIOTIC COMPOUNDS” (priority 2007, published 2011).
